Values quoted from earlier work as cited in patent US6495170B1, “Method of increasing the presence of glutathione in cells” (N. V. Nutricia, priority 2000, dated 2002).

Assays:
[1] = test system: mitochondrial GSH
[2] = test system: human neutrophils
[3] = test system: human erythrocytes
[4] = test system: glutathione-S-transferase
[5] = test system: isolated rat hepatocytes
[6] = test system: hepatic glutathione; conditions: induced by ethyl alcohol and paracetamol, rats
[7] = 200 μg/day supplement for 2 months
[8] = mice, ethanol-induced liver peroxidation, pretreatment 200 mg/kg
[9] = test system: hepatoblastoma Hep G2 cells
[10] = ingested in large amounts
[11] = 50 mg/kg p.o., mice treated with CCl4
[12] = test system: γ-GCS; conditions: mediated by increased expression of γ-GCS mRNA and enzyme activity via AP-1

For `O=NN(CCCl)C(=O)NCCCl` [BCNU], the GSH reductase activity ([1]; CCl4-intoxicated mice) is listed as “inhibited” and the “effect on the protective activity of schisandrin B” value ([1]; CCl4-intoxicated mice) is listed as “did not affect”.

In the case of `COc1cc(C2Oc3cc([C@H]4Oc5cc(O)cc(O)c5C(=O)[C@@H]4O)ccc3OC2CO)ccc1O` (stereo partly shown) [silybin], the “superoxide and hydrogen peroxide production” value [2] is given as “inhibitory effects”, the “activity of superoxide dismutase and glutathione peroxidase” value [3] is given as “increased” and the “inhibition of glutathione-S-transferase” value [4] is given as “potent, non-toxic, inhibitor”. For the same compound, the “GSH depletion by buthionine sulfoximide” value [5] was “does not affect”, the “GSH depletion induced by acetaminophen” value [5] was “reduces” and the hepatic glutathione depletion [6] was “protect”.

In the case of `[Se]` [Selenium], the peroxidative parameters [7] is given as “no effect” and the “plasma selenium levels and glutathione peroxidase” value [7] is given as “significantly improved”.

In the case of `COc1cc2c(c(O)c1OC)-c1c(cc(OC)c(OC)c1OC)C[C@@H](C)[C@@H](C)C2` [schisanhenol], the GSH-peroxidase activity [8] is given as “unaffected” and the “dismutase and catalase activity” value [8] is given as “increased”.

In the case of silymarin, the “acetaminophen-induced GSH depletion and cytotoxicity” value [9] is given as “protects”.

For `COc1cc2c(c(OC)c1OC)-c1c(cc3c(c1OC)OCO3)CC(C)C(C)C2` (stereo not shown) [schisandrin B], the GSH/GSSG ratio ([1]; 3 mmol/kg/day p.o.) is given as “elevating”, the GSSG level ([1]; 3 mmol/kg/day p.o.) is given as “decreased” and the “mitochondrial GSH level” value ([1]; 3 mmol/kg/day p.o.) is given as “increased”. For the same compound, the “mitochondrial GSH reductase activity” value ([1]; 3 mmol/kg/day p.o.) was “increased”, the GSH-peroxidase activity [8] was “unaffected” and the “dismutase and catalase activity” value [8] was “increased”.

In the case of `[Zn]` [zinc, Zinc], the “plasma zinc bound to RBP” value is given as under 2%, the “plasma zinc bound to albumin” value is given as 80-85% and the “plasma zinc bound to alpha2-macroglobulin” value is given as 15%.

In the case of `CC(=O)Nc1ccc(O)cc1` [Acetaminophen, acetaminophen], the hepatotoxicity [10] is listed as “severe hepatic necrosis”.

In the case of `COc1cc(C(=O)O[C@H]2[C@@H]3C=CO[C@@H](O[C@@H]4O[C@H](CO)[C@@H](O)[C@H](O)[C@H]4O)[C@@H]3[C@@]3(CO)O[C@@H]23)ccc1O` [Picroside II], the hepatoprotective activity [11] is given as “showed a hepatoprotective activity”.

For `COc1cc(C(C)=O)ccc1O` [Apocynin], the “intracellular GSH synthesis” value [12] is listed as “enhances”.
